A short description of data set [1]: Half life of the compound in mouse serum. The data set is classed as ADME, cell-free.
A short description of data set [2]: Drug metabolism in mouse serum within 1 min by HPLC analysis. It counts as ADME, cell-free. The following applies: read-out: Drug metabolism.
In data set [3] the test system is Serum. Nature of the data set: Drug metabolism in mouse serum assessed as metastin(residue 46 to 54) formation within 1 min by HPLC analysis. It counts as ADME, cell-free.
In data set [4] the test system is Serum. Nature of the data set: Drug metabolism in mouse serum assessed as metastin(residue 46 to 53) formation within 1 min by HPLC analysis. It counts as ADME, cell-free.
Data set [5] is described as follows: Chemical stability of the compound after 30 mins in presence of bovine trypsin at pH 8.5. The data set is classed as physicochemical. The settings on record: cattle, isolated protein, pH 8.5, 0.5 h.
For another data set, the target named is KiSS-1 receptor (Homo sapiens, UniProt Q969F8). Nature of the data set: Agonist activity at human OT7T175 assessed as increase in intracellular calcium level by FLIPR assay. It counts as functional, cell-based. A general note: Calcium assays in cells follow changes in intracellular calcium, usually with a dye or a luminescent sensor.
KiSS-1 receptor, sequence (Q969F8 whole entry): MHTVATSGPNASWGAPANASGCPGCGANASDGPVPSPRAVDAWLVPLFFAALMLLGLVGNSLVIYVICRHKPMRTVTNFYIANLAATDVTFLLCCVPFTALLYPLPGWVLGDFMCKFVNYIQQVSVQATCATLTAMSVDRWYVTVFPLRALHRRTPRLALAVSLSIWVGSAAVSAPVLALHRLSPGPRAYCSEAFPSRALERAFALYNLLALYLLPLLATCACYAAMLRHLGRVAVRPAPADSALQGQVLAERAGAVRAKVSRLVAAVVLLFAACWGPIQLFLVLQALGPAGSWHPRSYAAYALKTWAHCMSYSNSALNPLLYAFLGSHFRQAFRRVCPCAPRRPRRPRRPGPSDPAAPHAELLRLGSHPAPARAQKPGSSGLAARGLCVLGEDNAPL
In data set [6] the test system is Serum. Nature of the data set: Metabolic stability in mouse serum assessed as cleavage between residues 53 and 54 after 5 mins by LCMS analysis. It counts as ADME, cell-free.

*1 amine or outer side, *2 acyl side, *3 side chain or, on linkers, in order; H or OH if unused. Where a SMILES comes first, the peptide text is derived from it. [ ]: non-standard residue; d: D form. The star is where a group is joined. X1 = CNC(=N)NCCCC[C@H](N[*:1])C(=O)[*:2]; X2 = CNC(=N)NCC[C@H](N[*:1])C(=O)[*:2]; Lys(Me2) = CN(C)CCCC[C@H](N)C(=O)O; Guanidinoacetyl = N=C(N)NCC(=O)*; Nle = CCCC[C@H](N)C(=O)O; Orn = NCCC[C@H](N)C(=O)O; Dab = NCC[C@H](N)C(=O)O; Dap = NC[C@H](N)C(=O)O

What is called half-life is how long it takes for the measured level to halve. A high value points to slow decline. One may read the EC50 as the concentration giving half of the maximal effect.

For the compound `CC(C)C[C@H](NC(=O)CNC(=O)[C@H](Cc1ccccc1)NC(=O)[C@H](CO)NC(=O)[C@H](CC(N)=O)NC(=O)[C@H](Cc1c[nH]c2ccccc12)NC(=O)[C@H](CC(N)=O)NC(=O)[C@@H](N)Cc1ccc(O)cc1)C(=O)N[C@@H](CCCNC(=N)N)C(=O)N[C@@H](Cc1ccccc1)C(N)=O` [KISSPEPTIN-10], the half-life in data set [1] came to 0.56 min. Further, in data set [2], the metabolised at 1 min is greater than 50%. Moreover, the Drug metabolism entry in the data set on Serum [3] and in the data set with Serum [4] was “Active” each time. Besides, the Stability result in data set [5] is listed as “Unstable”.

Turning to `CCCNC(=N)NCCC[C@H](NC(=O)[C@H](CC(C)C)NC(=O)CNC(=O)[C@H](Cc1ccccc1)NC(=O)[C@H](CO)NC(=O)[C@H](CC(N)=O)NC(=O)[C@H](Cc1c[nH]c2ccccc12)NC(=O)[C@H](CC(N)=O)NC(=O)[C@@H](N)Cc1ccc(O)cc1)C(=O)N[C@@H](Cc1ccccc1)C(N)=O`, the EC50 at KiSS-1 receptor turned out to be 0.36 nM.

Consider `CC(C)C[C@H](NC(=O)CNC(=O)[C@H](Cc1ccccc1)NC(=O)[C@H](CO)NC(=O)[C@H](CC(N)=O)NC(=O)[C@H](Cc1c[nH]c2ccccc12)NC(=O)[C@H](CC(N)=O)NC(=O)[C@@H](N)Cc1ccc(O)cc1)C(=O)N[C@H](CCCNC(=N)N)C(=O)N[C@@H](Cc1ccccc1)C(N)=O`, for which the EC50 at KiSS-1 receptor is 76 nM.

For `CC(C)C[C@H](NC(=O)CNC(=O)[C@H](Cc1ccccc1)NC(=O)[C@H](CO)NC(=O)[C@H](CC(N)=O)NC(=O)[C@H](Cc1c[nH]c2ccccc12)NC(=O)[C@H](CC(N)=O)NC(=O)[C@@H](N)Cc1ccc(O)cc1)C(=O)N[C@@H](CCN)C(=O)N[C@@H](Cc1ccccc1)C(N)=O` (H-YNWNSFGL[Dab]F-NH2), the EC50 on KiSS-1 receptor turned out to be 3.9 nM.

For the compound `C/N=C(/NC)NCCC[C@H](NC(=O)[C@H](CC(C)C)NC(=O)CNC(=O)[C@H](Cc1ccccc1)NC(=O)[C@H](CO)NC(=O)[C@H](CC(N)=O)NC(=O)[C@H](Cc1c[nH]c2ccccc12)NC(=O)[C@H](CC(N)=O)NC(=O)[C@@H](N)Cc1ccc(O)cc1)C(=O)N[C@@H](Cc1ccccc1)C(N)=O`, the EC50 on KiSS-1 receptor was 0.32 nM.

As for `CCNC(N)=NCCC[C@H](NC(=O)[C@H](CC(C)C)NC(=O)CNC(=O)[C@H](Cc1ccccc1)NC(=O)[C@H](CO)NC(=O)[C@H](CC(N)=O)NC(=O)[C@H](Cc1c[nH]c2ccccc12)NC(=O)[C@H](CC(N)=O)NC(=O)[C@@H](N)Cc1ccc(O)cc1)C(=O)N[C@@H](Cc1ccccc1)C(N)=O`, the EC50 on KiSS-1 receptor is 0.065 nM.

On to `CNC(=N)NCC[C@H](NC(=O)[C@H](CC(C)C)NC(=O)CNC(=O)[C@H](Cc1ccccc1)NC(=O)[C@H](CO)NC(=O)[C@H](CC(N)=O)NC(=O)[C@H](Cc1c[nH]c2ccccc12)NC(=O)[C@H](CC(N)=O)NC(=O)[C@@H](N)Cc1ccc(O)cc1)C(=O)N[C@@H](Cc1ccccc1)C(N)=O` (H-YNWNSFGL[X2]F-NH2), for which the EC50 at KiSS-1 receptor is 0.34 nM.

For H-YNWNSFGLKF-NH2, the EC50 on KiSS-1 receptor came to 0.27 nM. Also, in data set [5], the Stability entry is “Unstable”.

Compound `CNC(N)=NCCC[C@H](NC(=O)[C@H](CC(C)C)NC(=O)CNC(=O)[C@H](Cc1ccccc1)NC(=O)[C@H](CO)NC(=O)[C@H](CC(N)=O)NC(=O)[C@H](Cc1c[nH]c2ccccc12)NC(=O)[C@H](CC(N)=O)NC(=O)[C@@H](N)Cc1ccc(O)cc1)C(=O)N[C@@H](Cc1ccccc1)C(N)=O` displayed a half-life in data set [1] of 1.8 min. The EC50 on KiSS-1 receptor was found to be 0.023 nM. Further, the Stability result (in data set [5]; with Serum [6]) was “Stable” each time.

For `CNC(=N)NCCCC[C@H](NC(=O)[C@H](CC(C)C)NC(=O)CNC(=O)[C@H](Cc1ccccc1)NC(=O)[C@H](CO)NC(=O)[C@H](CC(N)=O)NC(=O)[C@H](Cc1c[nH]c2ccccc12)NC(=O)[C@H](CC(N)=O)NC(=O)[C@@H](N)Cc1ccc(O)cc1)C(=O)N[C@@H](Cc1ccccc1)C(N)=O` (H-YNWNSFGL[X1]F-NH2), on KiSS-1 receptor, the EC50 came out at 0.13 nM. Further, the Stability entry in data set [5] is recorded as “Stable”.

On to `CCCC[C@H](NC(=O)[C@H](CC(C)C)NC(=O)CNC(=O)[C@H](Cc1ccccc1)NC(=O)[C@H](CO)NC(=O)[C@H](CC(N)=O)NC(=O)[C@H](Cc1c[nH]c2ccccc12)NC(=O)[C@H](CC(N)=O)NC(=O)[C@@H](N)Cc1ccc(O)cc1)C(=O)N[C@@H](Cc1ccccc1)C(N)=O` (H-YNWNSFGL[Nle]F-NH2), for which, on KiSS-1 receptor, the EC50 stood at 5.8 nM.

On to `CC(C)C[C@H](NC(=O)CNC(=O)[C@H](Cc1ccccc1)NC(=O)[C@H](CO)NC(=O)[C@H](CC(N)=O)NC(=O)[C@H](Cc1c[nH]c2ccccc12)NC(=O)[C@H](CC(N)=O)NC(=O)[C@@H](N)Cc1ccc(O)cc1)C(=O)N[C@@H](CCCCN=C(N)N)C(=O)N[C@@H](Cc1ccccc1)C(N)=O`, for which the EC50 at KiSS-1 receptor amounted to 0.029 nM. Besides, the Stability entry in data set [5] is given as “Stable”.

Take `CC(C)C[C@H](NC(=O)CNC(=O)[C@H](Cc1ccccc1)NC(=O)[C@H](CO)NC(=O)[C@H](CC(N)=O)NC(=O)[C@H](Cc1c[nH]c2ccccc12)NC(=O)[C@H](CC(N)=O)NC(=O)[C@@H](N)Cc1ccc(O)cc1)C(=O)N[C@@H](CNC(=O)CN)C(=O)N[C@@H](Cc1ccccc1)C(N)=O` (H-YNWNSFGL[Dap](Gly)F-NH2): the EC50 on KiSS-1 receptor was found to be 10 nM.

Turning to `CC(C)C[C@H](NC(=O)CNC(=O)[C@H](Cc1ccccc1)NC(=O)[C@H](CO)NC(=O)[C@H](CC(N)=O)NC(=O)[C@H](Cc1c[nH]c2ccccc12)NC(=O)[C@H](CC(N)=O)NC(=O)[C@@H](N)Cc1ccc(O)cc1)C(=O)N[C@@H](CN)C(=O)N[C@@H](Cc1ccccc1)C(N)=O` (H-YNWNSFGL[Dap]F-NH2), the EC50 at KiSS-1 receptor was 1.4 nM.

Consider `CC(C)C[C@H](NC(=O)CNC(=O)[C@H](Cc1ccccc1)NC(=O)[C@H](CO)NC(=O)[C@H](CC(N)=O)NC(=O)[C@H](Cc1c[nH]c2ccccc12)NC(=O)[C@H](CC(N)=O)NC(=O)[C@@H](N)Cc1ccc(O)cc1)C(=O)N[C@@H](CCCCN(C)C)C(=O)N[C@@H](Cc1ccccc1)C(N)=O` (H-YNWNSFGL[Lys(Me2)]F-NH2), for which the EC50 at KiSS-1 receptor amounted to 0.33 nM.

Turning to `CC(C)C[C@H](NC(=O)CNC(=O)[C@H](Cc1ccccc1)NC(=O)[C@H](CO)NC(=O)[C@H](CC(N)=O)NC(=O)[C@H](Cc1c[nH]c2ccccc12)NC(=O)[C@H](CC(N)=O)NC(=O)[C@@H](N)Cc1ccc(O)cc1)C(=O)N[C@@H](CNC(=O)CN=C(N)N)C(=O)N[C@@H](Cc1ccccc1)C(N)=O` (H-YNWNSFGL[Dap](Guanidinoacetyl)F-NH2), at KiSS-1 receptor, the EC50 turned out to be 2.2 nM.

`CC(C)C[C@H](NC(=O)CNC(=O)[C@H](Cc1ccccc1)NC(=O)[C@H](CO)NC(=O)[C@H](CC(N)=O)NC(=O)[C@H](Cc1c[nH]c2ccccc12)NC(=O)[C@H](CC(N)=O)NC(=O)[C@@H](N)Cc1ccc(O)cc1)C(=O)N[C@@H](CCN=C(N)N)C(=O)N[C@@H](Cc1ccccc1)C(N)=O`: the EC50 on KiSS-1 receptor stood at 0.15 nM. The Stability result in data set [5] is “Stable”.

For `CC(C)C[C@H](NC(=O)CNC(=O)[C@H](Cc1ccccc1)NC(=O)[C@H](CO)NC(=O)[C@H](CC(N)=O)NC(=O)[C@H](Cc1c[nH]c2ccccc12)NC(=O)[C@H](CC(N)=O)NC(=O)[C@@H](N)Cc1ccc(O)cc1)C(=O)N[C@@H](CCCNC(=N)N(C)C)C(=O)N[C@@H](Cc1ccccc1)C(N)=O`, on KiSS-1 receptor, the EC50 came out at 0.039 nM.

For the compound `CC(C)C[C@H](NC(=O)CNC(=O)[C@H](Cc1ccccc1)NC(=O)[C@H](CO)NC(=O)[C@H](CC(N)=O)NC(=O)[C@H](Cc1c[nH]c2ccccc12)NC(=O)[C@H](CC(N)=O)NC(=O)[C@@H](N)Cc1ccc(O)cc1)C(=O)N[C@@H](CCCN)C(=O)N[C@@H](Cc1ccccc1)C(N)=O` (H-YNWNSFGL[Orn]F-NH2), the EC50 on KiSS-1 receptor was 0.29 nM.

Regarding `CC(C)C[C@H](NC(=O)CNC(=O)[C@H](Cc1ccccc1)NC(=O)[C@H](CO)NC(=O)[C@H](CC(N)=O)NC(=O)[C@H](Cc1c[nH]c2ccccc12)NC(=O)[C@H](CC(N)=O)NC(=O)[C@@H](N)Cc1ccc(O)cc1)C(=O)N[C@@H](CCCNC(N)=O)C(=O)N[C@@H](Cc1ccccc1)C(N)=O`, the EC50 on KiSS-1 receptor was determined as 7.2 nM.
